Source: the NIST ThermoML archive (doi:10.1016/j.jct.2012.02.023)

Assay: xn = mol fraction of the nth substance listed
Conditions: 101 kPa, Liquid; for speed of sound: Sing-around technique in a fixed-path interferometer; for mass density: Vibrating tube method

CCCC[n+]1cccc(C)c1.F[B-](F)(F)F [1-butyl-3-methylpyridinium tetrafluoroborate] + CO
Conditions | mass density, 293.15 K [kg/m3] | mass density, 303.15 K [kg/m3] | mass density, 313.15 K [kg/m3] | mass density, 323.15 K [kg/m3] | speed of sound, 293.15 K [m/s] | speed of sound, 303.15 K [m/s] | speed of sound, 313.15 K [m/s] | speed of sound, 323.15 K [m/s]
x1 = 0.0481 | 876.902 | 868.149 | 858.994 | 850.146 | 1203.1 | 1173.4 | 1143.9 | 1114.7
x1 = 0.1001 | 940.659 | 932.121 | 923.594 | 915.022 | 1271 | 1243.3 | 1215.7 | 1188.3
x1 = 0.1548 | 988.767 | 980.512 | 972.213 | 964.125 | 1330.9 | 1304.2 | 1277.6 | 1251.7
x1 = 0.2003 | 1019.3 | 1011.19 | 1003.35 | 995.225 | 1370 | 1344 | 1318.1 | 1292.4
x1 = 0.2487 | 1045.53 | 1037.61 | 1029.56 | 1021.63 | 1407.2 | 1381.6 | 1356 | 1330.8
x1 = 0.297 | 1066.65 | 1058.61 | 1050.84 | 1042.82 | 1433.6 | 1408.1 | 1382.9 | 1358
x1 = 0.4013 | 1101.04 | 1093.31 | 1085.48 | 1077.9 | 1482.7 | 1457.9 | 1433 | 1415
x1 = 0.4969 | 1123.82 | 1116.42 | 1108.81 | 1101.29 | 1514.2 | 1489.3 | 1464.9 | 1443.1
x1 = 0.5974 | 1142.04 | 1134.73 | 1127.47 | 1120.24 | 1538.7 | 1514.1 | 1489.9 | 1466.2
x1 = 0.6972 | 1156.18 | 1149.17 | 1142.08 | 1135 | 1557.9 | 1533.5 | 1509.5 | 1485.8
x1 = 0.8437 | 1172.39 | 1165.51 | 1158.69 | 1151.77 | 1580.4 | 1556.2 | 1532.6 | 1509.2
x1 = 0.8984 | 1177.43 | 1170.57 | 1163.79 | 1156.96 | 1587.2 | 1562.8 | 1539.3 | 1516
x1 = 0.9692 | 1183.29 | 1176.48 | 1169.74 | 1162.98 | 1595.6 | 1571.3 | 1547.5 | 1524.5

CCCC[n+]1ccc(C)cc1.F[B-](F)(F)F [1-butyl-4-methylpyridinium tetrafluoroborate] + CCO
Conditions | mass density, 293.15 K [kg/m3] | mass density, 303.15 K [kg/m3] | mass density, 313.15 K [kg/m3] | mass density, 323.15 K [kg/m3] | speed of sound, 293.15 K [m/s] | speed of sound, 303.15 K [m/s] | speed of sound, 313.15 K [m/s] | speed of sound, 323.15 K [m/s]
x1 = 0.0507 | 854.988 | 846.802 | 838.56 | 830.183 | 1206.5 | 1176.7 | 1147.1 | 1117.3
x1 = 0.1 | 904.491 | 896.578 | 888.401 | 880.152 | 1246.2 | 1219 | 1189.9 | 1162.1
x1 = 0.1971 | 976.866 | 969.284 | 961.403 | 953.269 | 1321.9 | 1296.3 | 1268.9 | 1240.4
x1 = 0.2912 | 1026.69 | 1019.31 | 1011.46 | 1003.86 | 1384.8 | 1359.2 | 1333.8 | 1308.5
x1 = 0.3903 | 1066.1 | 1058.84 | 1051.3 | 1043.95 | 1440.8 | 1415 | 1389.7 | 1364.8
x1 = 0.4876 | 1096.19 | 1088.98 | 1081.75 | 1074.66 | 1483.8 | 1457.9 | 1432.5 | 1408
x1 = 0.5825 | 1119.75 | 1112.72 | 1105.58 | 1098.5 | 1522.5 | 1496.8 | 1471.7 | 1446.7
x1 = 0.6879 | 1141.24 | 1134.29 | – | 1120.3 | 1548.5 | 1525.3 | 1499.5 | 1475.8
x1 = 0.7938 | 1159.02 | 1152.18 | 1145.03 | 1138.28 | 1576.1 | 1556 | – | 1502.9
x1 = 0.8927 | 1173 | 1166.2 | 1159.13 | 1152.42 | 1594.2 | 1569.1 | – | 1522.3
x1 = 0.9284 | 1177.54 | 1170.73 | 1163.69 | 1157 | 1601.9 | 1579.3 | – | 1530.5

CCCC[n+]1ccc(C)cc1.F[B-](F)(F)F [1-butyl-4-methylpyridinium tetrafluoroborate] + CO
Conditions | mass density, 293.15 K [kg/m3] | mass density, 303.15 K [kg/m3] | mass density, 313.15 K [kg/m3] | mass density, 323.15 K [kg/m3] | speed of sound, 293.15 K [m/s] | speed of sound, 303.15 K [m/s] | speed of sound, 313.15 K [m/s] | speed of sound, 323.15 K [m/s]
x1 = 0.0507 | 881.091 | 872.29 | 863.158 | 854.017 | 1208.6 | 1178.1 | 1148.1 | 1119.5
x1 = 0.0989 | 939.26 | 930.783 | 922.085 | – | 1271.8 | 1242.3 | 1214.2 | –
x1 = 0.1922 | 1013.58 | 1005.46 | 997.343 | 989.026 | 1364.3 | 1337.8 | 1311.3 | 1289
x1 = 0.2934 | 1064.12 | 1056.34 | 1048.54 | 1040.72 | 1433.1 | 1409.5 | 1381.4 | 1361.5
x1 = 0.3877 | 1096.33 | 1088.9 | 1081.21 | 1073.75 | 1479.9 | 1455.9 | 1431.2 | 1407.8
x1 = 0.4839 | 1120.56 | 1113.33 | 1105.85 | 1098.72 | 1517 | 1490.9 | 1464.4 | 1439.8
x1 = 0.5909 | 1140.92 | 1133.83 | 1126.57 | 1119.63 | 1546.9 | 1521.3 | 1494.6 | 1471.5
x1 = 0.6925 | 1155.91 | 1148.93 | 1141.79 | 1134.99 | 1568.3 | 1543.5 | 1518.2 | 1494.6
x1 = 0.8001 | 1168.52 | 1161.62 | 1154.59 | 1147.87 | 1587.9 | 1563.2 | 1538.4 | 1516
x1 = 0.9042 | 1178.4 | 1171.56 | 1164.56 | 1157.92 | 1602.5 | 1577.6 | 1553.6 | 1531.3
x1 = 0.9535 | 1182.44 | 1175.62 | 1168.62 | 1162.01 | 1607.8 | 1583.1 | 1558.9 | 1536.3
